US12012406B1, “Pyrido[4,3-e]pyrrolo[1,2-a]pyrimidine as CK2 inhibitors” (KING FAISAL UNIVERSITY, priority 2024, dated 2024)

Columns and labels:
MIAPaCa-2 (pancreas) = test: In vitro cytotoxic activity MTT assay, MIAPaCa-2; format: cell-based; conditions: Homo sapiens, MIA PaCa-2, cells exposed for 96 hours, read-out: Cytotoxicity activity IC50 (50% inhibition of cell proliferation)
Procedure: (§1) Compounds 1-16 were screened for their in vitro cytotoxic activity utilizing a 3-(4,5-dimethyl-thiazol-2-yl)-2,5-diphenyltetrazolium bromide (MTT) assay against selected cancer human cell lines consisting of PC3 (prostate), HCT116 (colon), A375 (melanoma), H1299 (lung), MIAPaCa-2 (pancreas), HL60 (leukemia), MCF7 (breast), MDA-MB-231 (breast) (T. Mosmann, J. Immunol. Meth., 1983, 65, 55-63). The cells were cultured at 37° C. in RMPI1640 medium supplemented with 10% fetal bovine serum, 50 IU/mL penicillin, and 50 μg/mL streptomycin in a 5% CO2 incubator. All cells were sub-cultured 3 times/week by trypsinisation. Viable cells were seeded and allowed to adhere for 12 hours before a test drug was added in 96-well plates at an initial density of 1.0×10^5 cells/mL. Tumor cell lines were separately exposed to various concentrations of the tested compounds followed by incubation at a temperature of 37° C. during 96 hours inside a medium of fresh RMPI 1640. Cells were subsequently incubated at 37° C. using MTT at 0.5 mg/mL during 4 hours. After removal of supernatant, formazan crystals were dissolved in isopropanol and the optical density was measured at 570 nm. CX-4945 was used as a positive control.

[1] = target: T1, recombinant human CK2 (RRBB-holoenzyme) (Homo sapiens, UniProt P68400); test: CK2 Kinase Assay (33P-ATP, filter plate); format: biochemical; conditions: recombinant human CK2, final ATP concentration 15 μM, 10 min at 30° C.; read-out: protein kinase CK2 inhibition IC50
T1 construct: purchased Millipore
T1 sequence (P68400 whole entry): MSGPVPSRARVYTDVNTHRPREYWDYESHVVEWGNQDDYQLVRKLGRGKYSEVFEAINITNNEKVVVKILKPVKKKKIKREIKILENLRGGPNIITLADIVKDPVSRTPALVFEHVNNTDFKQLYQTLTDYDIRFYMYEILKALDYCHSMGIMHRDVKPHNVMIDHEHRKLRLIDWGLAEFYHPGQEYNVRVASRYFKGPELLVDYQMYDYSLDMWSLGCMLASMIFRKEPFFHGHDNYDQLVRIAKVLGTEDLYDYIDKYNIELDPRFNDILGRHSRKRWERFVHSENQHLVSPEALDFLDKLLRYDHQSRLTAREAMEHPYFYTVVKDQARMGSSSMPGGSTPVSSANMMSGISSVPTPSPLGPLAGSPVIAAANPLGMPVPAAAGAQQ
T1 sequence (P67870 whole entry partner): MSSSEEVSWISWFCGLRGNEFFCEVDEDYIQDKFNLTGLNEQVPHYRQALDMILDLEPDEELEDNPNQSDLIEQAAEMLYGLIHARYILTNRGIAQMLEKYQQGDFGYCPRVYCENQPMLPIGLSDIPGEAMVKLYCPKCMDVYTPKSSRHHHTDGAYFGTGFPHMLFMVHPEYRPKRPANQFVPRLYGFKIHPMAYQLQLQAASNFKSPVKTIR
Procedure: CK2 Kinase Assay was conducted using the protocol as described in Pierre F. et al; J. Med. Chem. 2011, 54, 635-654. The tested compounds in aqueous solution were added at a volume of 10 μL to a reaction mixture comprising 10 μL of assay dilution buffer (ADB; 20 mM MOPS, pH 7.2, 25 mM B-glycerol phosphate, 5 mM EGTA, 1 mM sodium orthovanadate, and 1 mM dithiothreitol), 10 μL of substrate peptide (RRRDDDSDDD, dissolved in ADB at a concentration of 1 mM), 10 μL of recombinant human CK2 (RRBB-holoenzyme, 25 ng dissolved in ADB; Millipore). Reactions were initiated by the addition of 10 μL of ATP solution (90% 75 mMMgCl2, 75 μM ATP (final ATP concentration: 15 μM) dissolved in ADB; 10% [γ-33P] ATP (stock 1mCi/100 μL; 3000 Ci/mmol (Perkin-Elmer) and maintained for 10 min at 30° C. The reactions were quenched with 100 μL of 0.75% phosphoric acid and then transferred to and filtered through a phosphor cellulose filter plate (Millipore). After washing each well five times with 0.75% phosphoric acid, the plate was dried under vacuum for 5 min and, following the addition of 15 μL of scintillation fluid to each well, the residual radioactivity was measured using a Wallac luminescence counter. The IC50 values were derived from eight concentrations of test inhibitors.

A375 (melanoma) = test: In vitro cytotoxic activity MTT assay, A375; format: cell-based; conditions: Homo sapiens, A-375, cells exposed for 96 hours, read-out: Cytotoxicity activity IC50 (50% inhibition of cell proliferation)
Procedure: as §1

H1299 (lung) = test: In vitro cytotoxic activity MTT assay, H1299; format: cell-based; conditions: Homo sapiens, NCI-H1299, cells exposed for 96 hours, read-out: Cytotoxicity activity IC50 (50% inhibition of cell proliferation)
Procedure: as §1

MDA-MB-231 (breast) = test: In vitro cytotoxic activity MTT assay, MDA-MB-231; format: cell-based; conditions: Homo sapiens, cells exposed for 96 hours, read-out: Cytotoxicity activity IC50 (50% inhibition of cell proliferation)
Procedure: as §1

PC3 (prostate) = test: In vitro cytotoxic activity MTT assay, PC3; format: cell-based; conditions: Homo sapiens, Prostate cell, cells exposed for 96 hours, read-out: Cytotoxicity activity IC50 (50% inhibition of cell proliferation)
Procedure: as §1

MCF7 (breast) = test: In vitro cytotoxic activity MTT assay, MCF7; format: cell-based; conditions: Homo sapiens, cells exposed for 96 hours, read-out: Cytotoxicity activity IC50 (50% inhibition of cell proliferation)
Procedure: as §1

HCT116 (colon) = test: In vitro cytotoxic activity MTT assay, HCT116; format: cell-based; conditions: Homo sapiens, HCT-116, cells exposed for 96 hours, read-out: Cytotoxicity activity IC50 (50% inhibition of cell proliferation)
Procedure: as §1

HL60 (leukemia) = test: In vitro cytotoxic activity MTT assay, HL60; format: cell-based; conditions: Homo sapiens, HL-60, cells exposed for 96 hours, read-out: Cytotoxicity activity IC50 (50% inhibition of cell proliferation)
Procedure: as §1

With `O=C(O)c1ccn2c1nc(Nc1cccc(Cl)c1)c1ccncc12` [Compound 1, 5-((3-chlorophenyl)amino)pyrido[4,3-e]pyrrolo[1,2-a]pyrimidine-7-carboxylic acid] the IC50 (MIAPaCa-2 (pancreas)) was 1.3 µM, the IC50 [1] was 0.089 µM and the IC50 (A375 (melanoma)) was 4.6 µM. The IC50 (H1299 (lung)) was 1.9 µM, the IC50 (MDA-MB-231 (breast)) was 4.2 µM and the IC50 (PC3 (prostate)) was 2.4 µM. For the same molecule, the IC50 (MCF7 (breast)) was 5.6 µM, the IC50 (HCT116 (colon)) was 2.1 µM and the IC50 (HL60 (leukemia)) was 3.5 µM.
